PMC5810286, “Niemann-Pick C2 Proteins: A New Function for an Old Family” (Frontiers in Physiology, 2018)
“Also recorded” adds a separate entry of the source.

Biological target: T1, HarmNPC2-1 (Helicoverpa armigera, UniProt A0A2W1BYA3)
Assay: Competitive binding experiments (displacement of 1-NPN)
Conditions: competitive binding with 1-NPN, ligand 0.5–16 μM
Method: (§1) Emission fluorescence spectra were recorded on a Horiba scientific Fluoromax-4 spectrofluorometer at room temperature in a right-angle configuration, with a 1 cm light path quartz cuvette and 5 nm slits for both excitation and emission. Proteins were dissolved in 50 mM Tris–HCl buffer, pH 7.4, while ligands were added as 1 mM methanol solutions.
The probe was excited at 337 nm and emission spectra were recorded between 380 and 450 nm. […] Data obtained with 1-NPN were analyzed with Prism software.

T1 sequence (A0A2W1BYA3 entry or part of it): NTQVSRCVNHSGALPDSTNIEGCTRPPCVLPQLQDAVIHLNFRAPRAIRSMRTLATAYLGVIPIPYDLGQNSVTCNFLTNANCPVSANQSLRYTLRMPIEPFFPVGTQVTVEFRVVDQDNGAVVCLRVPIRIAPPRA

SMILES	binding / affinity for HarmNPC2-1 (in words)
COc1cc(CNC(=O)CCCC/C=C/C(C)C)ccc1O [capsaicin]	failed to bind
COc1ccc([C@@H]2CC(=O)c3c(O)cc(O[C@@H]4O[C@H](CO[C@@H]5O[C@@H](C)[C@H](O)[C@@H](O)[C@H]5O)[C@@H](O)[C@H](O)[C@H]4O)cc3O2)cc1O [hesperidin]	the worst
Cc1cc2c(C(C)C)c(O)c(O)c(C=O)c2c(O)c1-c1c(C)cc2c(C(C)C)c(O)c(O)c(C=O)c2c1O [gossypol]	best ligand; also recorded: the best
COc1cc(C=O)ccc1O [vanillin]	failed to bind
OCc1ccc2c(c1)OCO2 [piperonyl alcohol]	failed to bind
O=C/C=C/c1ccccc1 [cinnamaldehyde]	failed to bind
C=CCc1ccc(O)c(OC)c1 [eugenol]	failed to bind
COc1cc(/C=C/C=O)ccc1O [coniferyl aldehyde]	moderate binding

Same assay, conditions: concentrations up to 16 μM; protein and 1-NPN both 2 μM

displacing the fluorescent probe from the complex	SMILES
ineffective	CCCCCCCCCC(=O)O [decanoic acid]
ineffective	CCCC/C=C\CCCCCCCCCC=O [(Z)-11-hexadecenal]
ineffective	CCCCCC/C=C\CCCCCCCC=O [(Z)-9-hexadecenal]
ineffective	CCCCCCCC(=O)O [octanoic acid]
ineffective	O=Cc1ccccc1O [2-hydroxy benzaldehyde]
ineffective	CCCCCCCO [1-heptanol]
ineffective	CCCCCCCC=O [octanal]
ineffective	CCCC=CC=CC=O [2,4-octadienal]
ineffective	CCCC/C=C\CCCCCCCCCCOC(C)=O [(Z)-11-hexadecenyl acetate]
ineffective	CCCC(O)CC (centres unmarked) [3-hexanol]
ineffective	CC1=C(C=O)C(C)(C)CC=C1 [safranal]
ineffective	CCCCC(C)O (centres unmarked) [2-hexanol]
ineffective	CC/C=C\CCO [Z3-hexen-1-ol]
ineffective	CC(C)=CCC[C@@H](C)CC=O (racemic) [citronellal]
ineffective	C=CC(O)CCCCC (centres unmarked) [1-octen-3-ol]
ineffective	COc1cc(C=O)ccc1O [vanillin]
ineffective	CCCC/C=C\CCCCCCCCCCO [(Z)-11-hexadecenol]
ineffective	CC(=O)/C=C/C1=C(C)CCCC1(C)C [β-ionone]
ineffective	CCCCCCCCCC=O [decanal]
ineffective	COC(=O)C=Cc1ccccc1 [methyl cinnamate]
ineffective	CC/C=C\CC1C(=O)CCC1CC(=O)OC (centres unmarked) [methyl jasmonate]
ineffective	COC(=O)CC(C)CCC=C(C)C (centres unmarked) [citronellic acid methyl ester]
ineffective	CC(C)=CCC/C(C)=C/CC/C(C)=C/CO [farnesol]

SMILES	displacing the fluorescent probe from the complex
COc1cc(CNC(=O)CCCC/C=C/C(C)C)ccc1O [capsaicin]	ineffective
O=CCc1ccccc1 [2-phenylacetaldehyde]	ineffective
COc1ccc(C=O)cc1 [4-methoxy benzaldehyde]	ineffective
Cc1ccc(C=O)cc1 [4-methyl benzaldehyde]	ineffective
O=Cc1ccccc1 [benzaldehyde]	ineffective
OCc1ccc2c(c1)OCO2 [piperonyl alcohol]	ineffective
O=C/C=C/c1ccccc1 [cinnamaldehyde]	ineffective
C[C@]12CC[C@@H]3c4ccc(O)cc4CC[C@H]3[C@@H]1CC[C@@H]2O [β-estradiol]	ineffective
C=C(C)C1CC=C(C)C(=O)C1 (centres unmarked) [carvone]	ineffective
C=CCc1ccc(O)c(OC)c1 [eugenol]	ineffective
c1ccc2[nH]ccc2c1 [indole]	ineffective

Biological target: T1, HarmNPC2-1
Assay: Quenching of intrinsic tryptophan fluorescence
Format: binding
Conditions: Figure 2C
Method: as §1

SMILES	quenching of intrinsic tryptophan fluorescence
Cc1cc2c(C(C)C)c(O)c(O)c(C=O)c2c(O)c1-c1c(C)cc2c(C(C)C)c(O)c(O)c(C=O)c2c1O [gossypol]	quenching of intrinsic tryptophan fluorescence in a dose-dependent fashion
O=c1c(O)c(-c2ccc(O)c(O)c2)oc2cc(O)cc(O)c12 [quercetin]	quenching of intrinsic tryptophan fluorescence in a dose-dependent fashion
